Assays:
[1] = molecular target: PI3Kα (p110[H1047R]/p85) kinase (Homo sapiens, UniProt P42336, H1047R); assay: PI3Kα (p110[H1047R]/p85) kinase ADP-Glo Assay; format: biochemical; details: 25 uM ATP; for selectivity: WT/H1047R: ADP-Glo Assay IC50 ratio
Procedure: PI3Kα (p110[H1047R]/p85) kinase ADP-Glo Assay. Certain compounds disclosed herein were tested for inhibition of PI3Kα (p110[H1047R]/p85) kinase in assays based on the ADP-Glo™ Kinase Assay methodology. The assays were carried out in 384-well white plates in a reaction mixture containing PI3Kα (p110[H1047R]/p85) kinase, 25 µM ATP, 5.35 µg/ml PI(4,5)P2:PS Lipid Kinase Substrate and […] compound in buffer containing 50 mM HEPES pH7.5, 50 mM NaCl, 3 mM MgCl2, 0.0025% BSA and 2 mM DTT. PI3Kα (p110[H1047R]/p85) kinase was incubated with Lipid Kinase Substrate and compound for 30 minutes at room temperature and the reaction was initiated by the addition of ATP.
After reaction at room temperature for 120 minutes, ADP-Glo™ reagents were added to terminate the kinase reaction and deplete the remaining ATP according to the manufacture's instruction (Promega Corporation). After incubation at room temperature for 1 hour, Kinase Detection Reagent (prepared by reconstituting the lyophilized Kinase Detection Substrate with Kinase Detection Buffer of the kit) was added to convert the ADP to ATP and to allow for the newly synthesized ATP to be measured using a luciferase/luciferin reaction. After incubation at room temperature for 0.5 hour, chemiluminescence signals were recorded on a PHERAstar FSX plate reader (BMG Labtech). The chemiluminescence generated in this assay correlates to the amount of ADP generated in the kinase assay, indicating kinase activity. […] The IC50 for each compound was derived from fitting the data to the four-parameter logistic equation by Dotmatics.

[2] = molecular target: PI3Kα (p110/p85) kinase (wild type, "WT") (Homo sapiens, UniProt P42336); assay: PI3Kα (p110/p85) kinase ADP-Glo Assay; format: biochemical; details: 25 uM ATP
PI3Kα (p110/p85) kinase (wild type, "WT"), sequence (P42336 whole entry): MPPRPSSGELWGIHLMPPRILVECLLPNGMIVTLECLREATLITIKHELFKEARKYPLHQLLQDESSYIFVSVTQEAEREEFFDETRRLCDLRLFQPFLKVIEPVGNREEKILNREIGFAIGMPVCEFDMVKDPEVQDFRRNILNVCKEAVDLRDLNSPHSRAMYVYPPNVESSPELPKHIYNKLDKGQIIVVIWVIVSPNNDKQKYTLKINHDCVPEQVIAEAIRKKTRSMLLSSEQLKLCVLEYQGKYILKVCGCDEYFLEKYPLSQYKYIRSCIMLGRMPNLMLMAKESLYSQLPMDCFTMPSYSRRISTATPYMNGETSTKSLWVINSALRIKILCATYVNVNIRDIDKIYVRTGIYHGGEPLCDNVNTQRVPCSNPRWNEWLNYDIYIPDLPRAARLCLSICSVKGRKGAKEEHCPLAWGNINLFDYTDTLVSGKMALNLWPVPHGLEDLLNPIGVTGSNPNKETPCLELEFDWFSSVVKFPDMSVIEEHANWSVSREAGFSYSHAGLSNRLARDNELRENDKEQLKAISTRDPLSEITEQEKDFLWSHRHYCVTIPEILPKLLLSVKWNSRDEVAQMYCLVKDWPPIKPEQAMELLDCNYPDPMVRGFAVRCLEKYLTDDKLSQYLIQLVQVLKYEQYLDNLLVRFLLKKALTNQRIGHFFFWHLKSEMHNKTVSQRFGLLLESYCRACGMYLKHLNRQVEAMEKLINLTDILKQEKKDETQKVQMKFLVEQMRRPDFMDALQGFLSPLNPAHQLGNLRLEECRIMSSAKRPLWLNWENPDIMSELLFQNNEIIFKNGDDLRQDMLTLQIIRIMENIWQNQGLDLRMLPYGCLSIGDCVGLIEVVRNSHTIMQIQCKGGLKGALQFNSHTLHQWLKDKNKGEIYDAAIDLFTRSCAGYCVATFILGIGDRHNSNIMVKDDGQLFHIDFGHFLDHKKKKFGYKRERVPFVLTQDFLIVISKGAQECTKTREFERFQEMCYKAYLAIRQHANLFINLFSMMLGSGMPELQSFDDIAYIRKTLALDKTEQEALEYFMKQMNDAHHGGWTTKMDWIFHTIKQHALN
PI3Kα (p110/p85) kinase (wild type, "WT"), sequence (P27986 whole entry partner): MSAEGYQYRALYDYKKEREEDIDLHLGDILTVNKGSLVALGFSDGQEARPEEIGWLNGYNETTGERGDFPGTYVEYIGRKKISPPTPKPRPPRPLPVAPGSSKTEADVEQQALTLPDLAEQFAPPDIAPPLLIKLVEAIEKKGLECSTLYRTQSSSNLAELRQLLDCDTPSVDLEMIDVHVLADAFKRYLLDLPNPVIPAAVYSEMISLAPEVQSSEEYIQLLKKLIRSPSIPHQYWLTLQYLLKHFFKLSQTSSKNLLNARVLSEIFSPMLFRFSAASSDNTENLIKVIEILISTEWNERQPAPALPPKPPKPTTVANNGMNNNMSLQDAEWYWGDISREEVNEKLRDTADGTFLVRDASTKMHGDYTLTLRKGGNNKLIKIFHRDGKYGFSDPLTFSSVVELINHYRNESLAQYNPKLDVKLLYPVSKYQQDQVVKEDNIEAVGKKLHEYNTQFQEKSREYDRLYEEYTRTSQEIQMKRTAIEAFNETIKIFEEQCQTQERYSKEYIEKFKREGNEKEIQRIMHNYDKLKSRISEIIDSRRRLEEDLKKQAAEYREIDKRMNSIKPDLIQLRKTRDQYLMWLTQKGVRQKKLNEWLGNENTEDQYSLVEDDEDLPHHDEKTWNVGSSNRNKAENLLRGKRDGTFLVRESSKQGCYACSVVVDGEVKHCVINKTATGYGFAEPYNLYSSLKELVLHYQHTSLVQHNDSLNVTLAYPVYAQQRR
Procedure: PI3Kα (p110/p85) kinase ADP-Glo Assay. Certain compounds disclosed herein were tested for inhibition of PI3Kα (p110/p85) kinase (wild type, “WT”) in assays based on the ADP-Glo™ Kinase Assay methodology. The assays were carried out in 384-well white plates in a reaction mixture containing PI3Kα (p110/p85) kinase, 25 µM ATP, 5.35 µg/mL PI(4,5)P2:PS Lipid Kinase Substrate and […] compound in buffer containing 50 mM HEPES pH7.5, 50 mM NaCl, 3 mM MgCl2, 0.0025% BSA and 2 mM DTT. PI3Kα (p110/p85) kinase was incubated with Lipid Kinase Substrate and compound for 30 minutes at room temperature and the reaction was initiated by the addition of ATP. After reaction at room temperature for 120 minutes, ADP-Glo™ reagents were added to terminate the kinase reaction and deplete the remaining ATP according to the manufacture's instruction (Promega Corporation). After incubation at room temperature for 1 hour, Kinase Detection Reagent (prepared by reconstituting the lyophilized Kinase Detection Substrate with Kinase Detection Buffer of the kit) was added to convert the ADP to ATP and to allow for the newly synthesized ATP to be measured using a luciferase/luciferin reaction. After incubation at room temperature for 0.5 hour, chemiluminescence signals were recorded on a PHERAstar FSX plate reader (BMG Labtech). The chemiluminescence generated in this assay correlates to the amount of ADP generated in the kinase assay, indicating kinase activity. […] The IC50 for each compound was derived from fitting the data to the four-parameter logistic equation by Dotmatics.

WT cell line SK-BR-3 = assay: Phospho-AKT (Ser473) Inhibition Assay (HTRF), SK-BR-3; format: cell-based; details: Homo sapiens; SK-BR-3, 1 hour treatment; read-out: p-AKT Inhibition assay (S473) IC50 SK-BR-3
Procedure: The SK-BR-3 (ATCC, HTB-30) cell line was obtained from the American Type Culture Collection. Cells were maintained in McCoy' 5A medium (Gibco, REF #16600108) supplemented with 10% Fetal Bovine Serum. Cultures were maintained in a humidified incubator at 37° C. under 5% CO2/95% air.
(§1) Phospho-AKT Inhibition Assay. HTRF Phospho-AKT (Ser473) detection kit (Cisbio, REF #64AKSPEH) was used in phosphor-AKT inhibition assay. For compound screening, PI3Kα H1047R mutated cell line T-47D and WT cell line SK-BR-3 cells were seeded at a density of 3×10^4 cells per well in 96 well plate (Costar, REF #3599) in 95 μL of assay medium (MEM medium (Gibco, REF #12561-056) with 1×NEAA (Gibco, REF #11140-050), 1 mM sodium pyruvate (Gibco, REF #11360-070), and 1 g/ml human insulin (Topscience, REF #T8221)), overnight. Compounds dissolved in 10 mM stock solutions in DMSO were serially diluted 1:3 in DMSO to generate an 11-point dilution series and plated using an INTEGRA ASSIST PLUS pipetting robot. A 20× intermediate compound dilution plate in RPMI1640 medium (200 M starting compound concentration in 2% DMSO) was then prepared. Five μL of intermediate serially diluted compounds were added to the cell plate to final concentrations ranging from […] to 0.1 nM in 0.1% DMSO. 0.1% DMSO alone was used to establish the maximum signal and GDC0077 at final concentration of 10 μM was used as a reference compound for minimum signal. After 1 hour treatment, removed medium and added 50 μL of supplemented lysis buffer (1×) immediately. Incubated for at least 30 minutes at room temperature under shaking. Transferred 16 μL of cell lysate from the 96-well cell-culture plate to a 384-white detection plate (PerkinElmer, Optiplate 384, 6007299). Added 4 μL of premixed antibody solutions prepared in the detection buffer. Incubated 4 hours at room temperature in dark. The plates were read on PHERAstar FSX Microplate reader (BMG LABTECH, Inc.) using standard HTRF settings.
(§2) Relative IC50 values were determined using luminescence units by calculating percent inhibition with respect to the in-plate “MIN” (GDC0077 reference control) and “MAX” (DMSO) controls. The data were analyzed using a 4-parameter nonlinear logistic equation (four-parameter logistic concentration-response curve): Y=bottom+[(top−bottom)/1+(X/IC50) slope] • where Y=% inhibition, X=concentration of inhibitor, bottom=minimum value of y attained by curve-fit, top=maximum value of y attained by curve-fit and slope=steepness of curve at the IC50.

[3] = system: PI3Kα H1047R mutated cell line T-47D; assay: Phospho-AKT (Ser473) Inhibition Assay (HTRF), T-47D; format: cell-based; details: for IC50: Homo sapiens, T47D, T-47D, 1 hour treatment, read-out: p-AKT Inhibition assay (S473) IC50 T-47D; for Selectivity: SK-BR-3/T-47D (p-AKT): p-AKT (S473) IC50 ratio
Procedure: Cell Culture Maintenance. The T-47D (ATCC, HTB-133) cell line was obtained from the American Type Culture Collection. Cells were maintained in RPMI1640 medium (Gibco, REF #22400105) supplemented with 10% Fetal Bovine Serum (Gibco, REF #10091148). Cultures were maintained in a humidified incubator at 37° C. under 5% CO2/95% air.
as §1, §2

PI3Kα (p110[H1047R]/p85) kinase, sequence (P42336 whole entry H1047R): as the sequence (P42336 whole entry) above, with H1047R counted along it
PI3Kα (p110[H1047R]/p85) kinase, sequence (P27986 whole entry partner): as the sequence (P27986 whole entry partner) above

## Cc1cc(C(C)Nc2ccccc2C(=O)O)c2cc(-c3ccccc3)[nH]c(=O)c2c1 (centres unmarked) [Example 26, 2-((1-(7-methyl-1-oxo-3-phenyl-1,2-dihydroisoquinolin-5-yl)ethyl)amino)benzoic acid]
[1]
  IC50: 0.158 µM
  selectivity: WT/H1047R: 40
[2]
  IC50: 6.25 µM
WT cell line SK-BR-3
  IC50: > 10 µM
[3]
  IC50: 0.05 µM
  Selectivity: SK-BR-3/T-47D (p-AKT): >198

## Cc1cc([C@H](C)Nc2ccccc2C(=O)O)c2cc(-c3ccc(-c4cnn(C)c4)cc3)n(C)c(=O)c2c1 [Example 41, (S)-2-((1-(2,7-dimethyl-3-(4-(1-methyl-1H-pyrazol-4-yl)phenyl)-1-oxo-1,2-dihydroisoquinolin-5-yl)ethyl)amino)benzoic acid]
[1]
  IC50: 7.18 µM
  selectivity: WT/H1047R: 8.5
[2]
  IC50: 61 µM
WT cell line SK-BR-3
  IC50: 3.23 µM
[3]
  IC50: > 10 µM

## Cc1cc(C(C)Nc2ccccc2C(=O)O)c2cc(C#CC3CCCCC3)n(C)c(=O)c2c1 (centres unmarked) [Example 28, 2-((1-(3-(cyclohexylethynyl)-2,7-dimethyl-1-oxo-1,2-dihydroisoquinolin-5-yl)ethyl)amino)benzoic acid]
[1]
  IC50: 0.505 µM
  selectivity: WT/H1047R: >198
[2]
  IC50: > 100 µM
WT cell line SK-BR-3
  IC50: 6.43 µM
[3]
  IC50: 0.472 µM
  Selectivity: SK-BR-3/T-47D (p-AKT): 17

## Cc1cc(C(C)Nc2ccccc2C(=O)O)c2cc(-c3cnn(-c4cccc(C#N)c4)c3)n(C)c(=O)c2c1 (centres unmarked) [Example 29, 2-((1-(3-(1-(3-cyanophenyl)-1H-pyrazol-4-yl)-2,7-dimethyl-1-oxo-1,2-dihydroisoquinolin-5-yl)ethyl)amino)benzoic acid]
[1]
  IC50: 0.26 µM
  selectivity: WT/H1047R: 15
[2]
  IC50: 3.8 µM
WT cell line SK-BR-3
  IC50: 2.7 µM
[3]
  IC50: 0.107 µM
  Selectivity: SK-BR-3/T-47D (p-AKT): 25

From US20260125346A1, “Isoquinolinone Derivatives and 4H-Quinolizinone Derivatives and Pharmaceutical Compositions Thereof for the Treatment of Disease” (BeOne Medicines I GmbH, priority 2023, published 2026)
